According to patent US10471030B2, “Immunomodulatory and differentiating function selective retinoid and rexinoid compounds in combination with immune modulators for cancer immunotherapy” (Io Therapeutics, Inc., priority 2017, dated 2019):

Columns and labels:
NB4 cells = assay: CFU experiments off and on stroma, NB4 cells; type: cell-based; conditions: 10^−7 M ATRA, IRX5183, or 10^−8 M AM80
From the text: (§1) Data across three independent experiments.

OCI-AML3 cells = assay: CFU experiments off and on stroma, OCI-AML3 cells; type: cell-based; conditions: 10^−6 M ATRA, IRX5183, or 10^−7 M AM80
From the text: as §1

Kasumi-1 cells = assay: CFU experiments off and on stroma, Kasumi-1 cells; type: cell-based; conditions: 10^−6 M ATRA, IRX5183, or 10^−7 M AM80
From the text: as §1

[1] = system: MM cell lines and MM CD138+ primary cells; assay: BTZ sensitivity of MM cells, clonogenic or cellular recovery, liquid or BM stroma; type: cell-based, human; conditions: for BTZ resistance after separation from BM stroma: H929 cells, 5-day stroma co-culture, fresh media 0 to 48 hr; for sensitivity of MM cells to BTZ: BTZ 2.5 nM for 48 hr
Experimental: (§2) 24-well plates were coated with 0.1% gelatin in PBS for 30 min at 37° C. The gelatin solution was removed, and the stromal cells were cultured overnight at a density of 5×10^4 cells/well to obtain a confluent monolayer. At that time, MM cell lines or primary MM cells (1×10^5 in 2 ml) were added to the stroma cultures. The stroma cocultures were incubated at 37° C. in RPMI containing 10% FCS, L-glutamine, and P/S, with or without AGN194310 (1 μM for 5 days), R115866 (1 μM for 5 days), IRX5183 (1 μM for 5 days), or BTZ (2.5 nM for 48 hr).
MM cells were separated from BM stromal cells by gently pipetting several times around the well. Detached cells were centrifuged, resuspended in fresh media, and incubated in a 24-well plate for 1 hr at 37° C. During this short incubation period, contaminating stromal cells attached to the well, while MM cells remained in suspension. MM cells were then recovered by gently pipetting. This protocol was used for qRT-PCR and CFU coculture experiments. The purity achieved using this protocol was confirmed by flow cytometry to be 98%-99% MM cells and less than 2% contaminating stroma.
After treatment, MM cells were collected, washed with PBS, and plated at a density of 5,000 cells/ml in 1 ml of 1.32% methylcellulose supplemented with 30% FBS, 10% BSA, L-glutamine, P/S, and 0.1 mM β-ME. Cells were plated in triplicate in 35-mm culture dishes, incubated at 37° C., and scored for the presence of colonies 14 days later.
To determine whether decreased retinoid signaling contributes to BTZ resistance within the BM niche, MM cell lines and MM CD138+ primary cells were incubated with BM stroma for 5 days, followed by BTZ treatment.
Strategies to overcome microenvironment-dependent chemoprotection have focused on mobilization of cancer cells from the BM niche into the peripheral circulation. It was analyzed whether the change in phenotype and subsequent BTZ resistance of MM cells were lost upon separation from the BM stroma, a process that mimics mobilization. To this end, H929 cells were separated from BM mesenchymal cells following a 5-day stroma co-culture, incubated in fresh media (RPMI with 10% FBS) for 0 to 48 hr, and then treated with BTZ. […] Thus, microenvironment-dependent BTZ resistance induced by the change in MM cell phenotype may not immediately be reversed by tumor mobilization.

MM cells = assay: surface CD138 expression of MM cells (flow cytometry); type: cell-based, human; conditions: 1 μM
Experimental: as §2
Following treatment, MM cells were collected, washed with PBS, and stained for 15 min at room temperature with phycoerythrin-conjugated (PE-conjugated) anti-CD138. Cells were washed to remove unbound antibody and evaluated in a FACSCalibur system (BD Biosciences). Stromal cells were identified by GFP expression, and viable cells were identified using 7-aminoactinomycin D (7-AAD). To calculate cell numbers, live GFP-cells were normalized to calibration beads.
Expression of CD138 is a hallmark of normal PC differentiation as well MM PCs.

[2] = system: MM H929 cell lines and MM CD138+ primary cells; assay: mRNA expression of B cell and PC markers in MM cells, liquid or BM stroma co-culture (qRT-PCR); type: cell-based, human; conditions: 1 μM for 5 days; for expression of differentiation markers: liquid conditions (absence of stroma)
Experimental: as §2
(§3) Total RNA was extracted using the RNeasy Mini Kit (QIAGEN) according to the manufacturer's instructions. cDNA was synthesized by reverse transcription using the iScript cDNA Synthesis Kit (Bio-Rad). qRT-PCR was performed with iTaq SYBR Green Supermix (Bio-Rad) using sequence specific primers. Gene expression was normalized to GAPDH, and relative quantification was calculated using ΔΔCt. All experiments were performed in duplicate and run on the Bio-Rad CFX96 machine.
The BM microenvironment (also called “niche”) limits PC differentiation by modulating retinoid signaling. A population of MM progenitors, phenotypically similar to B cells, is intrinsically resistant to BTZ and contributes to MRD and relapse. To investigate whether the BM niche plays a role in determining the phenotype of MM cells, the mRNA expression of B cell and PC markers in MM H929 cell lines (FIGS. 3A-D) and MM CD138+ primary cells (FIGS. 3E-H) was analyzed following co-culture with mouse BM stroma using human-specific primers. […] In contrast, co-culture of MM cells with BM stroma decreased the mRNA expression of B lymphocyte-induced maturation protein 1 (BLIMP1) and spliced X box-binding protein 1 (XBP1s) (FIG. 3B, C, F, G), which are critical mediators of PC differentiation.
The BM niche regulates hematopoietic stem cell (HSC) differentiation by expressing the retinoid-inactivating enzyme CYP26. CYP26 enzymes were highly expressed in BM mesenchymal cells, while their expression was barely detectable in MM cells. Since retinoid signaling promotes PC differentiation and potentiates Ig secretion, it was determined whether stromal CYP26 is responsible for inducing a B cell phenotype in MM cells. To this end, co-culture conditions were treated with the CYP26 inhibitor R115866 (R115) or the CYP26-resistant RA receptor α-selective (RARα-selective) retinoid IRX5183 (IRX).

[3] = system: Naive CD4+ CD25− FoxP3− cells; assay: Treg cell differentiation from naive T cells in vitro (FoxP3-GFP, flow cytometry); type: cell-based, mouse; conditions: in vitro assay; data not shown
Experimental: (§4) To determine whether a RARα agonist could affect T cell differentiation, T cells were incubated with a RARα agonist to determine its effect on Foxp3 expression. Naive CD4^+ CD25^− FoxP3^− cells were purified from a Foxp3-GFP mouse using flow cytometry by sorting and isolating based upon a GFP^− phenotype. These cells were activated polyclonally with αCD3 in vitro in the presence of IL-2 and TGF-β. These cells were then cultured in media with various concentrations of compound IRX5183 (a RARα agonist) and the expression of FoxP3-GFP was analyzed by flow cytometry. The RARα agonist compound IRX5183 enhanced differentiation of immunosuppressive Treg cells and inhibited differentiation of inflammatory TH17 cells from naïve T cells in vitro (Table 2).

CD4+ T cells = assay: in vivo T cell differentiation in mice (FoxP3 expression in CD4+ T cells of blood and spleen); set-up: species or system mouse; conditions: in vivo assay; data not shown
Experimental: To expand on the finding above, the in vivo effects of a RARα agonist on T cell differentiation was evaluated in a mouse model. Mice were treated with 100 μg of compound IRX5183 or an equivalent volume of DMSO (vehicle control) every other day for 10 days. Lymphocytes from the blood and spleen were then isolated and FoxP3 expression in CD4^+ T cells was assessed.

[4] = system: Naive CD4+ CD25− FoxP3− cells; assay: Th17 cell differentiation from naive T cells in vitro; type: cell-based, mouse; conditions: in vitro assay; data not shown
Experimental: as §4

CYP26A1 = assay: stromal CYP26A1 expression in BM stromal cells (qRT-PCR); type: cell-based; conditions: for CYP26A1 expression on BM stromal cells: soluble factors tested
Experimental: as §3

H929 Luc+ cells = assay: subcutaneous xenograft model of MM-niche interactions with WT or Smo-KO stroma, bioluminescence; type: in vivo, NSG mice; conditions: BTZ 0.5 mg/kg i.p. twice weekly
Experimental: 1×10^6 H929 Luc+ cells and 1×10^6 mouse BM stromal cells were resuspended in 100 μl […]®, diluted with RPMI (1:1), and injected subcutaneously into 16-week-old male NSG mice. After 4 days, treatment with BTZ (0.5 mg/kg i.p. twice weekly) and IRX (10 mg/kg i.p. daily) was initiated. Tumor burden was assessed by bioluminescence using the In Vivo Imaging System (PerkinElmer). For imaging, mice were exposed to 120 mg/kg D-luciferin via intraperitoneal injection […] before imaging and were anesthetized using isoflurane. Images were analyzed with Living Image Software, version 2.5 (PerkinElmer), and data were quantified as photons/second.
To study to what extent an RA-low environment created by the BM stroma and enhanced by MM cells via paracrine Hedgehog signaling contributes to BTZ resistance, a xenograft model of MM-niche interactions was developed. Each mouse carried 2 subcutaneous tumors consisting of H929 Luc+ cells and either WT (anterior tumors) or Smo-KO stroma (posterior tumors). Mice were treated with IRX (10 mg/kg i.p. daily), BTZ (0.5 mg/kg i.p. twice weekly), or a combination of both. The growth of tumors bearing WT or Smo-KO stroma was not different in untreated or IRX-treated groups (FIGS. 9 and 10). […] While some tumors in the treatment group receiving combined IRX and BTZ appeared to have regressed completely, even after anatomical study, this was not the case for all the mice in this group.

[5] = system: H929 luciferase+ (Luc+) cells; assay: systemic MM xenograft, bioluminescence; type: in vivo, NSG mice; conditions: monotherapy, 4 weeks; BTZ 0.5 mg/kg i.p. twice weekly, IRX 10 mg/kg once daily
Experimental: For the systemic MM model, 2×10^6 Luc+/GFP+ H929 cells were injected via the tail vein into 16-week-old male NSG mice. After engraftment, as determined by an exponential increase in bioluminescence, mice were treated with BTZ (0.5 mg/kg i.p.) twice weekly and with IRX (10 mg/kg) once daily. Tumor burden was assessed by bioluminescence, as above.
To test whether retinoids can enhance BTZ activity in MM, a systemic MM xenograft was developed by injecting 2×10^6 H929 luciferase+ (Luc+) cells via the tail vein of non-obese, diabetic, severe combined immunodeficiency IL-2 receptor γ-KO (NSG) mice. The animals were randomized to receive IRX, BTZ, or a combination of both, and disease burden was followed weekly by bioluminescence imaging (FIG. 6).

B16F10 tumor cells = assay: survival of C57BL/6 mice engrafted with B16F10 tumor cells; type: in vivo; conditions: at 50 days; 10 nM RARγ agonist; vehicles only 0%
Experimental: The anti-tumor effects of anti-CTLA-4 antibody treatment combined with 10 nM RAR ? agonist (AGN204647 (IRX4647)) are examined in C57BL/6 mice engrafted with B16F10 tumor cells. […] The survival rate of the mice treated with anti-CTLA-4 antibody alone is 40% at 50 days while the mice treated with RAR ? agonist alone have a 30% survival in the same time.

CC1=C(/C=C/C(C)=C/C=C/C(C)=C/C(=O)O)C(C)(C)CCC1 [ATRA, all-trans retinoic acid]
clonogenic growth (CFU) (NB4 cells): stroma blockage | clonogenic growth (CFU) (OCI-AML3 cells): stroma blockage | clonogenic growth (CFU) (Kasumi-1 cells): stroma blockage

CCc1ccc(C2=CC(C)(C)Sc3ccc(C#Cc4ccc(C(=O)O)cc4)cc32)cc1 [AGN194310]
BTZ sensitivity of MM cells ([1]; liquid, 1 μM for 5 days, then BTZ): decreasing BTZ sensitivity | surface CD138 expression (MM cells; without stroma): markedly decreased | expression of differentiation markers [2]: mimicked the changes induced by BM stromal cells

CCOc1c(Br)cc(C(=O)Nc2ccc(C(=O)O)cc2)cc1C(=O)c1ccc(C)cc1 [AGN196996]
Treg cell numbers [3]: decreases Treg cell numbers | Th17 cell numbers (CD4+ T cells): increases Th17 cell numbers | Treg cell numbers (CD4+ T cells): decreases Treg cell numbers | Th17 cell numbers [4]: increases Th17 cell numbers

CC1=C2C[C@H]3[C@@H](CC=C4C[C@@H](O)CC[C@@]43C)[C@@H]2CC[C@]12O[C@@H]1C[C@H](C)CN[C@H]1[C@H]2C [cyclopamine]
stromal Cyp26a1 upregulation by MM cells (CYP26A1; co-culture with MM cells): partially overcame

CCC(CC)C(c1ccc(Nc2nc3ccccc3s2)cc1)n1cncn1 (stereo not shown) [Compound R115866]
stroma-induced BTZ resistance ([1]; BM stroma with 1 μM test agent for 5 days, then BTZ 2.5 nM for 48 hr): overcome | BTZ resistance after separation from BM stroma ([1]; then BTZ): prevented the development of a BTZ-resistant phenotype | surface CD138 expression (MM cells; BM stromal cell co-cultures): restored CD138 expression | mRNA expression of BCL6, BLIMP1, XBP1s, CHOP markers ([2]; BM stroma co-cultures): restored all markers to levels comparable to those of liquid control conditions | expression of differentiation markers [2]: did not significantly affect

TNF-α
CYP26A1 expression on BM stromal cells (CYP26A1): no significant effects

CC1(C)CCC(C)(C)c2cc(NC(=O)c3ccc(C(=O)O)cc3)ccc21 [AM80, 4-[(5,6,7,8-tetrahydro-5,5,8,8-tetramethyl-2-naphthalenyl)carbamoyl]benzoic acid]
clonogenic growth (CFU) (NB4 cells): decrease in clonogenic growth compared to control | clonogenic growth (CFU) (OCI-AML3 cells): decrease in clonogenic growth compared to control | clonogenic growth (CFU) (Kasumi-1 cells): decrease in clonogenic growth compared to control

IL-6: cytokine, soluble factor tested
CYP26A1 expression on BM stromal cells (CYP26A1): no significant effects

CC(C)C[C@H](NC(=O)[C@H](Cc1ccccc1)NC(=O)c1cnccn1)B(O)O [BTZ, bortezomib]
BTZ resistance after separation from BM stroma ([1]; then BTZ): remained partially resistant to BTZ for up to 48 hr | sensitivity of MM cells to BTZ ([1]; absence of BM stroma (liquid)): highly sensitive | sensitivity of MM cells to BTZ ([1]; after 5 days incubation with BM stroma): induced BTZ resistance | response of tumors carrying Smo-KO stroma (bioluminescence) (H929 Luc+ cells): significant response | response of tumors with WT stroma (bioluminescence) (H929 Luc+ cells): refractory to BTZ treatment | tumor burden (bioluminescence) [5]: decreased tumor growth compared with untreated controls

CC1(C)CCC(C)(C)c2cc(C(/C=C/c3cccc(C(=O)O)c3)=N/O)ccc21 [AGN204647]
survival rate (B16F10 tumor cells): 30%
